Laboratory results reported in patent US20180296630A1, “METHODS AND COMPOSITIONS FOR PREVENTING OR TREATING OPHTHALMIC CONDITIONS” (Stealth BioTherapeutics Corp, priority 2012, published 2018).

Columns and labels:
[1] = Ocular pharmacokinetics and disposition of total radioactivity after topical instillation or subcutaneous dosing; type: in vivo, New Zealand White rabbits; conditions: for AUC0-24 h / AUCinf / T1/2 / Tmax: topical instillation 1% solution, 40 μL/eye, total radioactivity; for time post-dosing at which equivalent drug concentration reached a maximum / equivalent drug content at peak concentration, of the total dose administered to the eye: topical instillation
Method: Sixteen New Zealand White rabbits were dosed with a formulation consisting of 10 mg/mL of ^14C-labeled D-Arg-2′,6′-Dmt-Lys-Phe-NH2. Animals were at least twelve weeks old and weighed 2.30-3.43 kg at the time of dosing. Animals were randomized to treatment groups according to Table 7.
Dosing solutions were prepared by combining 14.70 mg (correction factor of 0.782) of non-radiolabeled D-Arg-2′,6′-Dmt-Lys-Phe-NH2, and 17.49 mg (correction factor of 0.770) of ^14C-labeled D-Arg-2′,6′-Dmt-Lys-Phe-NH2, and dissolving in 2.5 mL of 0.01M PBS, pH 7.4 to achieve a concentration of 9.97 mg/mL (1%, free peptide) and a radiolabeled concentration of […]. Three aliquots (100 μL) of dosing solution were brought to a volume of 25 mL with saline. Duplicate 100 μL aliquots of the diluted solutions were quantified for radioactivity by liquid scintillation counting (LSC). […] The dosing solutions were stored at 2-8° C. for up to 24 hours prior to use, or at −70° C. for future use.
On Day 1, 40 μL of the 1% (10 mg/mL) D-Arg-2′,6′-Dmt-Lys-Phe-NH2 dosing solution was topically instilled into both eyes of each animal in Groups A-G. Each animal in Groups H-I received a single subcutaneous dose of 0.1 mL/kg (1 mg/kg) of the dosing solution into the dorsal scapular region. At the designated time, each animal was anesthetized and blood was collected via cardiac puncture. Animals were euthanized following cardiac puncture. Approximately 3±0.5 mL of whole blood was collected in a K2EDTA tube. Four aliquots (100 μL) were directly transformed to combustion cones. Blood aliquots were stored at ≤−20° C. until analyzed.
For Groups A-G, the right globe and one left globe from each group (N=3 globes) were collected and necropsied. The remaining left eye (except for Group G) was collected for possible 3D-QWBA (Quantitative whole body autoradiography) analysis and the conjunctiva remained intact to the eyes. For Groups H-I, both globes were collected from each animal and necropsied. All eyes designated for necropsy were rinsed with normal saline and aqueous humor samples were collected. The globes were enucleated and frozen in liquid nitrogen and stored at ≤−80° C. prior to dissection. The vitreous humor, cornea, conjunctiva, iris/ciliary body, lens, retina, choroid, and sclera were collected from the appropriate eye, weighed, and stored at ≤−20° C. prior to analysis. Aqueous humor samples were also stored at ≤−20° C. until analyzed.
All radioactivity measurements were performed using a Beckman Liquid Scintillation Spectrometer. Two blood aliquots were combusted and two aliquots were reserved for combustion if needed. From each eye, the cornea, conjunctiva, iris/ciliary body, lens, retina, choroid, and sclera from each eye were weighed into combustion cones and combusted. Duplicate aliquots of each aqueous humor sample and each vitreous humor sample were transferred to scintillation vials using Insta-Gel as the scintillation fluid, and the amount of radioactivity was determined.

[2] = system: GTM cells; experiment: Morphology of GTM cells exposed to H2O2 (inverted phase contrast microscopy); type: cell-based, human; conditions: peptide prior to H2O2, concentration-dependent and time-dependent
Source text: The morphology of GTM cells was investigated when those cells were exposed to D-Arg-2′,6′-Dmt-Lys-Phe-NH2 prior to administration of hydrogen peroxide. […] That is, hydrogen peroxide mediated cell loss and rounding was diminished in cells exposed to D-Arg-2′,6′-Dmt-Lys-Phe-NH2 peptide. The mitochondrial membrane potential (Δψm) of HTM and GTM cells was also investigated when those cells were exposed to D-Arg-2′,6′-Dmt-Lys-Phe-NH2 prior to administration of hydrogen peroxide. The mitochondrial membrane potential was measured using confocal microscopy of cells labeled with tetramethylrhodamine methyl ester (TMRM, 500 nM×30 min) (FIG. 19-21). […] As such, D-Arg-2′,6′-Dmt-Lys-Phe-NH2 provides a protective effect against oxidative stress in GTM cells.

[3] = system: 661W cells; experiment: Mitochondrial viability of 661W cells exposed to tBHP (JC-1 assay); type: cell-based, mouse; conditions: 100 nmol/L
Method: The potential of D-Arg-2′,6′-Dmt-Lys-Phe-NH2 (D-Arg-2′,6′-Dmt-Lys-Phe-NH2) to protect against loss of mitochondrial viability induced by tBHP, 100 nmol/L D-Arg-2′,6′-Dmt-Lys-Phe-NH2 was administered to the cultures of 661w cells.

[4] = system: STZ-treated mice; experiment: Spatial frequency (SPF) threshold in STZ-treated / diabetic-diet mice; type: in vivo
Method: Subjects were maintained on a normal diet (ND) or diabetic diet (DD) for up to 32 weeks, and were administered D-Arg-2′,6′-Dmt-Lys-Phe-NH2 or control vehicle with or without streptozotocin. Results are shown in FIG. 41, with response values are averaged for each eye.

D-Arg-2′,6′-Dmt-Lys-Phe-NH2
AUC0-24 h ([1]; aqueous humor): 2600 hr*ng-equi/g | AUCinf ([1]; aqueous humor): 2680 hr*ng-equi/g | T1/2 ([1]; aqueous humor): 4.60 h | Tmax ([1]; aqueous humor): 4.0 h | radioactivity concentration ([1]; blood, 1 hour after subcutaneous dosing (1 mg/kg)): 356 ng-equi/g | radioactivity concentration ([1]; blood, 2 hours after subcutaneous dosing (1 mg/kg)): 87.9 ng-equi/g | AUC0-24 h ([1]; blood): 1210 hr*ng-equi/g | AUCinf ([1]; blood): 1250 hr*ng-equi/g | T1/2 ([1]; blood): 4.36 h | Tmax ([1]; blood): 2.0 h | time post-dosing at which equivalent drug concentration reached a maximum ([1]; choroid, lens and retina): 4 h | equivalent drug concentration ([1]; choroid, 1 hour after subcutaneous dosing (1 mg/kg)): 558±251 ng-equi/g | AUC0-24 h ([1]; choroid): 1900 hr*ng-equi/g | AUCinf ([1]; choroid): 2190 hr*ng-equi/g | T1/2 ([1]; choroid): 8.21 h | Tmax ([1]; choroid): 4.0 h | time post-dosing at which equivalent drug concentration reached a maximum ([1]; conjunctiva, cornea and sclera): 0.5 h | equivalent drug concentration ([1]; conjunctiva, 1 hour after subcutaneous dosing (1 mg/kg)): 650±12 ng-equi/g | equivalent drug content at peak concentration, of the total dose administered to the eye ([1]; conjunctiva): 0.293±0.198% | AUC0-24 h ([1]; conjunctiva): 41,400 hr*ng-equi/g | AUCinf ([1]; conjunctiva): 56,000 hr*ng-equi/g | T1/2 ([1]; conjunctiva): 13.6 h | Tmax ([1]; conjunctiva): 0.5 h | equivalent drug concentration ([1]; cornea, 1 hour after subcutaneous dosing (1 mg/kg)): 209 ng-equi/g | equivalent drug content at peak concentration, of the total dose administered to the eye ([1]; cornea): 0.028±0.005% | AUC0-24 h ([1]; cornea): 14,000 hr*ng-equi/g | Tmax ([1]; cornea): 0.5 h | equivalent drug concentration ([1]; iris/ciliary body, 1 hour after subcutaneous dosing (1 mg/kg)): 513±2 ng-equi/g | AUC0-24 h ([1]; iris/ciliary body): 2750 hr*ng-equi/g | AUCinf ([1]; iris/ciliary body): 3279 hr*ng-equi/g | T1/2 ([1]; iris/ciliary body): 8.81 h | Tmax ([1]; iris/ciliary body): 4.0 h | AUC0-24 h ([1]; lens): 2720 hr*ng-equi/g | Tmax ([1]; lens): 4.0 h | equivalent drug concentration ([1]; retina, 1 hour after subcutaneous dosing (1 mg/kg)): 336±3 ng-equi/g | AUC0-24 h ([1]; retina): 1030 hr*ng-equi/g | AUCinf ([1]; retina): 1160 hr*ng-equi/g | T1/2 ([1]; retina): 7.01 h | Tmax ([1]; retina): 4.0 h | equivalent drug concentration ([1]; sclera, 1 hour after subcutaneous dosing (1 mg/kg)): 530±47 ng-equi/g | equivalent drug content at peak concentration, of the total dose administered to the eye ([1]; sclera): 0.051±0.035% | AUC0-24 h ([1]; sclera): 5780 hr*ng-equi/g | AUCinf ([1]; sclera): 8910 hr*ng-equi/g | T1/2 ([1]; sclera): 18.3 h | Tmax ([1]; sclera): 0.5 h | AUC0-24 h ([1]; vitreous humor): 221 hr*ng-equi/g | AUCinf ([1]; vitreous humor): 253 hr*ng-equi/g | T1/2 ([1]; vitreous humor): 7.50 h | Tmax ([1]; vitreous humor): 4.0 h | hydrogen peroxide-mediated morphological changes (cell loss and rounding) [2]: protects cells from hydrogen peroxide-mediated morphological changes | mitochondrial viability (JC-1 assay) [3]: significantly enhanced | rescue of visual impairment by eyedrop versus systemic administration ([4]; STZ-treated animals maintained on a diabetic diet, eyedrop): one month sooner | time by which the visual deficit was fully rescued ([4]; STZ-treated animals, systemic treatment initiated at 12 weeks): ≤ 24 weeks | time by which rescue was shown ([4]; animals on a diabetic diet alone): ≤ 30 weeks | time by which the visual deficit was fully restored ([4]; animals on a diabetic diet and administered STZ): ≤ 24 weeks | visual impairment (spatial frequency threshold) ([4]; animals with metabolic dysfunction): rescued
